US10137185B2, “PAP peptide analogues” (THE NOTTINGHAM TRENT UNIVERSITY, priority 2014, dated 2018)
Several values for one entry are separate records, joined by “and”; a condition that tells them apart may be missing. Equal values may be shown once.

System: PBMCs isolated from patients with prostate cancer
Test: IFNγ ELISPOT of pre- and post-vaccination PBMCs, Norway clinical trial (mRNA-transfected DC vaccine)
Assay type: cell-based, human
Conditions: for post-vaccination samples with significantly higher peptide-specific IFNγ response than pre-vaccination: of 8 responder samples, 48 hours
Source text: FIG. 4. The flow chart of Norway clinical trial. Monocytes were isolated from patients with prostate cancer and cultured in vitro. mRNA isolated from the prostate cancer cell lines DU145, LNCAP and PC3 were transfected into immature dendritic cells (DCs). The DCs were then allowed to mature and were re-infused back into the patient. PBMCs isolated a week before (pre-vaccination) and 12 weeks after immunisations (post-vaccination) were used in this study. The patients were categorised as responders and non-responders based on the PSA levels and also metastatic state of the disease based on bone scans post immunisation.
FIG. 5. IFNγ response of PBMCs isolated from patients with prostate cancer who had responded to the therapy and were categorised as being ‘responders’ on the basis of the criteria detailed above (Norway Clinical Trial) after re-stimulation with PAP-115-123 epitope peptide (10 μg), as determined using the ELISPOT assay. PBMCs isolated pre-vaccination (black bars) and post vaccination (red bars) are compared. Patient samples are represented as p10, p12, p15 etc. The cryopreserved PBMCs were washed and rested overnight, at which time 4×10^4 cells were added to each well of an ELISPOT plate. PAP-115-123 epitope peptide (10 μg) was added to each well and the cells cultured for 48 hours. The plates were then washed according to the manufacturer's protocol. PBMCs cultured with an HIV-derived peptide or no added peptide were used as controls. Comparisons of means (±SEM) between groups (pre-vaccination or post-vaccination PBMCs) are made using an unpaired t test.
FIG. 6. IFNγ response of PBMCs isolated from patients with prostate cancer who had responded to the therapy and were categorised as being ‘responders’ on the basis of the criteria detailed above after re-stimulation with PAP-115-123 epitope peptide (1 μg), as determined using the ELISPOT assay. PBMCs isolated pre-vaccination (black bars) and post-vaccination (red bars) are compared here. Patient samples are represented as p10, p12, p15 etc. The cryopreserved PBMCs were washed and rested overnight, at which time 4×10^4 cells were added to each well of an ELISPOT plate. PAP-115-123 epitope peptide (1 μg) was added to each well and the cells cultured for 48 hours. The plates were then washed according to manufacturer's protocol. PBMCs cultured with HIV-derived peptide or no added peptide were used as controls. Comparisons of means (±SEM) between groups (pre-vaccination or post-vaccination PBMCs) are made using an unpaired t test.
FIG. 7. Fold change in the IFNγ response generated by PBMCs isolated from patients with prostate cancer from the Norway Clinical Trial after restimulation with PAP-115-123 epitope peptide (10 μg), as determined using the ELISPOT assay. Patients that were reported to have responded to the treatment (p10, p12, p15, p19, p101, p102, p107, p108) are indicated by red bars. […] The cryopreserved PBMCs were washed and rested overnight, at which time 4×10^4 cells were added to each well of an ELISPOT plate. PAP-115-123 epitope peptide (10 μg) was added to each well and the plates cultured for 48 hours. The plates were then washed according to the manufacturer's protocol. PBMCs cultured with HIV-derived peptide or no added peptide were used as control.
The presence of circulating PAP-115-123 specific T cells in PBMCs isolated from patients with prostate cancer following treatment with DCs that had been transfected with mRNA isolated from the prostate cancer cell lines (DU145, LNCaP and PC3) as part of a Norwegian Clinical Trial which was performed by Professor Gustav Gaudernack was determined on the basis of their responsiveness to PAP-derived peptides. In the trial, DCs were isolated from patients with prostate cancer and cultured DCs were transfected with mRNA isolated from the prostate cancer cell lines (DU145, LNCaP and PC3). The matured DCs were re-infused back into the patients (FIG. 4). […]

SAMTNLAAL [PAP-115-123]
number of spots, pre-vaccination samples (1 μg peptide): 10-30 spots | number of spots, post-vaccination samples (1 μg peptide, patients p12, p19, p101, p102, p107, p108): 60-140 spots | number of spots, pre-vaccination samples (10 μg peptide): 10-30 spots | number of spots, post-vaccination samples (10 μg peptide, patients p12, p15, p19, p102, p107, p108): 60-160 spots | fold decrease in IFNγ response post vs pre vaccination, non-responders (4 non-responder patients, 10 μg peptide, ELISPOT): 2-12 fold and 2-10 fold | fold higher peptide-specific IFNγ response post vs pre vaccination, responders (8 responder patients, 10 μg peptide, ELISPOT): 2-4 fold | post-vaccination samples with significantly higher peptide-specific IFNγ response than pre-vaccination (1 μg peptide): 6 | post-vaccination samples with significantly higher peptide-specific IFNγ response than pre-vaccination (10 μg peptide): 6
